Assay results published in patent US20040258620A1, “(Ethylene)-( propylene)-triaminepentaacetic acid derivatives, process for their production, and their use for the production of pharmaceutical agents” (priority 2001, published 2004).
Several values for one entry are separate records, joined by “and”; a condition that tells them apart may be missing. Equal values may be shown once. Blank lines part the entries; values can stand above or below the compound they belong to.

What was measured:
[1] = determined by potentiometry (Wang et al, Dalton, 1998); cited from earlier work
[2] = Peak-to-peak line widths of the EPR band at 0.34 T; type: physicochemical; design: unit not given here
Text: (§1) The Gd(EPTPA-bz-NO2) complex (Formula VII, Z is NO2) has been investigated by ^17O NMR, EPR and ^1H NMRD.

[3] = Simultaneous analysis of 17O NMR, EPR and NMRD data
Text: The ^17O NMR, NMRD and EPR experimental data (points) and the fitted curves (lines) as obtained in a simultaneous analysis, according to the method of Powell et al., J. Am. Chem. Soc.

[4] = Variable temperature 17O NMR relaxation rates and chemical shifts of GdEPTPA-bz-NO2; type: physicochemical; settings: for ^17O NMR T1 / ^17O NMR T2 / ^17O NMR ν / ^17O NMR chemical shift Δw / ^17O NMR reduced chemical shift Δwr: C = 55.79 mM; for ^17O NMR T1 / ^17O NMR T2 / ^17O NMR ν: pH = 6.0; for ^17O NMR chemical shift Δw / ^17O NMR reduced chemical shift Δwr: pH = 6.0, reference = HClO4
Text: as §1

[5] = Proton relaxivities (1H NMRD profiles) of Gd(EPTPA-bz-NO2); type: physicochemical
Protocol: According to the ^17O chemical shifts, the complex has one inner sphere water molecule. […] The water exchange rate obtained for […]) is in the optimal range to attain high proton relaxivities. This property, together with the high thermodynamic stability, is a unique feature among Gd(III) chelates known so far and it makes […]) an ideal synthon to be attached to any rigid, slowly tumbling macromolecular agent. […] (bottom curve) and 25° C. (top curve).

[6] = Protonation constants of the ligands by pH-potentiometry; type: physicochemical; settings: protonation constant of the ligand; I=0.1M TMACI, t=25° C.
Text: (§2) Protonation constants of the two ligands, DPTPA and EPTPA-Bz-NO2, and stability constants of their complexes formed with Gd(III) and some endogenously available cations have been determined by pH-potentiometry. The selectivity of the ligand for Gd(III) over Zn(II) (log(KGdL/KZnL)) is especially important as it directly relates to the safety of the Gd(III) contrast agent.

[7] = Stability constants of the complexes formed with Zn(II) by pH-potentiometry; type: physicochemical; settings: I=0.1M TMACI, t=25° C.
Text: as §2

[8] = Stability constants of the Ca complexes by pH-potentiometry; type: physicochemical
Text: as §2

[9] = Stability constants of the complexes formed with Gd(III) by pH-potentiometry; type: physicochemical; settings: I=0.1M TMACI, t=25° C.
Text: as §2

SMILES: O=C([O-])CN(CCCN(CC(=O)[O-])CC(=O)[O-])CCN(CC(=O)[O-])CC(=O)[O-].[Gd+3] [Gd(III)(EPTPA), Gd(III) complex of 3,6,10-tri(carboxymethly)-3,6,10-triazadodecanedioic acid]
thermodynamic stability constant, logo [1]: 22.77

ΔHpp, peak-to-peak line width of the EPR band ([2]; T 3 ° C.): 363.25
ΔHpp, peak-to-peak line width of the EPR band ([2]; T 23.5 ° C.): 297.4
ΔHpp, peak-to-peak line width of the EPR band ([2]; T 34.1 ° C.): 286
ΔHpp, peak-to-peak line width of the EPR band ([2]; T 40.3 ° C.): 280.2
ΔHpp, peak-to-peak line width of the EPR band ([2]; T 47.6 ° C.): 283.15
ΔHpp, peak-to-peak line width of the EPR band ([2]; T 56.3 ° C.): 297.4
ΔHpp, peak-to-peak line width of the EPR band ([2]; T 72.4 ° C.): 326
^17O NMR T1 ([4]; T 274.5 K): 0.00301 s
^17O NMR T2 ([4]; T 274.5 K): 0.00135 s
^17O NMR ν ([4]; T 274.5 K): −3678.6 Hz
^17O NMR chemical shift Δw ([4]; T 274.5 K): −133.1 Hz
^17O NMR reduced chemical shift Δwr ([4]; T 274.5 K): −8.33E+05 Hz
^17O NMR T1 ([4]; T 286.7 K): 0.00428 s
^17O NMR T2 ([4]; T 286.7 K): 0.00167 s
^17O NMR ν ([4]; T 286.7 K): −3686.0 Hz
^17O NMR chemical shift Δw ([4]; T 286.7 K): −125.36 Hz
^17O NMR reduced chemical shift Δwr ([4]; T 286.7 K): −7.84E+05 Hz
^17O NMR T1 ([4]; T 293.5 K): 0.00513 s
^17O NMR T2 ([4]; T 293.5 K): 0.00198 s
^17O NMR ν ([4]; T 293.5 K): −3690.4 Hz
^17O NMR chemical shift Δw ([4]; T 293.5 K): −125.25 Hz
^17O NMR reduced chemical shift Δwr ([4]; T 293.5 K): −7.84E+05 Hz
^17O NMR T1 ([4]; T 298.0 K): 0.00599 s
^17O NMR T2 ([4]; T 298.0 K): 0.00263 s
^17O NMR ν ([4]; T 298.0 K): −3705.7 Hz
^17O NMR chemical shift Δw ([4]; T 298.0 K): −123.5 Hz
^17O NMR reduced chemical shift Δwr ([4]; T 298.0 K): −7.73E+05 Hz
^17O NMR T1 ([4]; T 306.7 K): 0.00734 s
^17O NMR T2 ([4]; T 306.7 K): 0.00263 s
^17O NMR ν ([4]; T 306.7 K): −3702.7 Hz
^17O NMR chemical shift Δw ([4]; T 306.7 K): −120.4 Hz
^17O NMR reduced chemical shift Δwr ([4]; T 306.7 K): −7.53E+05 Hz
^17O NMR T1 ([4]; T 324.2 K): 0.0104 s
^17O NMR T2 ([4]; T 324.2 K): 0.00425 s
^17O NMR ν ([4]; T 324.2 K): −3751.5 Hz
^17O NMR chemical shift Δw ([4]; T 324.2 K): −121.2 Hz
^17O NMR reduced chemical shift Δwr ([4]; T 324.2 K): −7.58E+05 Hz
^17O NMR T1 ([4]; T 338.7 K): 0.0137 s
^17O NMR T2 ([4]; T 338.7 K): 0.00616 s
^17O NMR ν ([4]; T 338.7 K): −3764.2 Hz
^17O NMR chemical shift Δw ([4]; T 338.7 K): −99.4 Hz
^17O NMR reduced chemical shift Δwr ([4]; T 338.7 K): −6.22E+05 Hz
^17O NMR T1 ([4]; T 359.7 K): 0.0189 s
^17O NMR T2 ([4]; T 359.7 K): 0.00967 s
^17O NMR ν ([4]; T 359.7 K): −3803.0 Hz
^17O NMR chemical shift Δw ([4]; T 359.7 K): −95.8 Hz
^17O NMR reduced chemical shift Δwr ([4]; T 359.7 K): −5.99E+05 Hz
inner sphere water molecules of the complex ([4]; according to the ^17O chemical shifts): one
Proton relaxivity ([5]; 24.8° C., proton Larmor frequency 0.022 MHz): 8.54 mM⁻¹ s⁻¹
Proton relaxivity ([5]; 24.8° C., proton Larmor frequency 0.036 MHz): 8.63 mM⁻¹ s⁻¹
Proton relaxivity ([5]; 24.8° C., proton Larmor frequency 0.061 MHz): 8.69 mM⁻¹ s⁻¹
Proton relaxivity ([5]; 24.8° C., proton Larmor frequency 0.101 MHz): 8.34 mM⁻¹ s⁻¹
Proton relaxivity ([5]; 24.8° C., proton Larmor frequency 0.168 MHz): 8.47 mM⁻¹ s⁻¹
Proton relaxivity ([5]; 24.8° C., proton Larmor frequency 0.280 MHz): 8.55 mM⁻¹ s⁻¹
Proton relaxivity ([5]; 24.8° C., proton Larmor frequency 0.467 MHz): 8.21 mM⁻¹ s⁻¹
Proton relaxivity ([5]; 24.8° C., proton Larmor frequency 0.778 MHz): 8.29 mM⁻¹ s⁻¹ and 8.39 mM⁻¹ s⁻¹
Proton relaxivity ([5]; 24.8° C., proton Larmor frequency 2.159 MHz): 7.41 mM⁻¹ s⁻¹
Proton relaxivity ([5]; 24.8° C., proton Larmor frequency 3.598 MHz): 7.23 mM⁻¹ s⁻¹
Proton relaxivity ([5]; 24.8° C., proton Larmor frequency 5.999 MHz): 6.33 mM⁻¹ s⁻¹
Proton relaxivity ([5]; 24.8° C., proton Larmor frequency 9.998 MHz): 5.56 mM⁻¹ s⁻¹
Proton relaxivity ([5]; 24.8° C., proton Larmor frequency 12.001 MHz): 5.47 mM⁻¹ s⁻¹
Proton relaxivity ([5]; 24.8° C., proton Larmor frequency 14.002 MHz): 5.15 mM⁻¹ s⁻¹
Proton relaxivity ([5]; 24.8° C., proton Larmor frequency 16.000 MHz): 4.98 mM⁻¹ s⁻¹
Proton relaxivity ([5]; 24.8° C., proton Larmor frequency 18.002 MHz): 4.91 mM⁻¹ s⁻¹
Proton relaxivity ([5]; 24.8° C., proton Larmor frequency 20.001 MHz): 4.73 mM⁻¹ s⁻¹
Proton relaxivity ([5]; 37.3° C., proton Larmor frequency 0.022 MHz): 6.47 mM⁻¹ s⁻¹
Proton relaxivity ([5]; 37.3° C., proton Larmor frequency 0.036 MHz): 6.56 mM⁻¹ s⁻¹
Proton relaxivity ([5]; 37.3° C., proton Larmor frequency 0.061 MHz): 6.44 mM⁻¹ s⁻¹
Proton relaxivity ([5]; 37.3° C., proton Larmor frequency 0.101 MHz): 6.90 mM⁻¹ s⁻¹
Proton relaxivity ([5]; 37.3° C., proton Larmor frequency 0.168 MHz): 6.55 mM⁻¹ s⁻¹
Proton relaxivity ([5]; 37.3° C., proton Larmor frequency 0.280 MHz): 6.57 mM⁻¹ s⁻¹
Proton relaxivity ([5]; 37.3° C., proton Larmor frequency 0.467 MHz): 6.49 mM⁻¹ s⁻¹
Proton relaxivity ([5]; 37.3° C., proton Larmor frequency 0.778 MHz): 6.19 mM⁻¹ s⁻¹ and 6.36 mM⁻¹ s⁻¹
Proton relaxivity ([5]; 37.3° C., proton Larmor frequency 2.159 MHz): 5.80 mM⁻¹ s⁻¹
Proton relaxivity ([5]; 37.3° C., proton Larmor frequency 3.598 MHz): 5.67 mM⁻¹ s⁻¹
Proton relaxivity ([5]; 37.3° C., proton Larmor frequency 5.999 MHz): 5.21 mM⁻¹ s⁻¹
Proton relaxivity ([5]; 37.3° C., proton Larmor frequency 9.998 MHz): 4.42 mM⁻¹ s⁻¹
Proton relaxivity ([5]; 37.3° C., proton Larmor frequency 12.001 MHz): 4.18 mM⁻¹ s⁻¹
Proton relaxivity ([5]; 37.3° C., proton Larmor frequency 14.002 MHz): 4.20 mM⁻¹ s⁻¹
Proton relaxivity ([5]; 37.3° C., proton Larmor frequency 16.000 MHz): 4.26 mM⁻¹ s⁻¹
Proton relaxivity ([5]; 37.3° C., proton Larmor frequency 18.002 MHz): 4.12 mM⁻¹ s⁻¹
SMILES: O=C([O-])CN(CCCN(CC(=O)[O-])CC(Cc1ccc([N+](=O)[O-])cc1)N(CC(=O)[O-])CC(=O)[O-])CC(=O)[O-].[Gd+3] (centres unmarked) [Gd(EPTPA-bz-NO2)]
water exchange rate kex^298 [3]: 1.4e+08 s⁻¹
water exchange rate, times higher than that measured on Gd(DTPA) ([3]; relative to Gd(DTPA)): 40 times

pKa1 [6]: 10.91
pKa2 [6]: 9.29
pKa3 [6]: 7.07
pKa4 [6]: 2.76
pKa5 [6]: 2.19
logKZnH2L [7]: 3.17
logKZnHL [7]: 8.06
logKZnL ([7]; stability constant): 15.60
logKCaH2L [8]: 6.01
logKCaHL [8]: 8.63
logKCaL ([8]; stability constant): 6.01
logKGdH2L [9]: 5.43
logKGdHL [9]: 6.30
logKGdL ([9]; stability constant): 13.00
SMILES: O=C(O)CN(CCCN(CC(=O)O)CC(=O)O)CCCN(CC(=O)O)CC(=O)O [DPTPA]
